Values quoted from earlier work in patent US7604823B2, “Synergistic HIV/AIDS and/or immune disease phyto-nutraceutical composition” (priority 2006, dated 2009).
Entries after “also recorded” stand apart in the source; their conditions may differ.

How the values were obtained:
[1] = tested on: bacterial resistance mechanism (multidrug pump); details: in the presence of 5′-MHC
[2] = molecular target: HIV-1 PR (Human immunodeficiency virus type 1 group M subtype B, UniProt P04585)
[3] = tested on: HIV-1-infected cells (CEM/LAV-1)
[4] = molecular target: HIV-1 reverse transcriptase (Human immunodeficiency virus type 1 group M subtype B, UniProt P04585)
[5] = tested on: HIV-1
[6] = tested on: HIV-1; details: prolonged period
[7] = tested on: HIV; details: after administration, no antiretroviral medications
[8] = tested on: cells either acutely or chronically infected with HIV-1; details: cells acutely or chronically infected with HIV-1
[9] = tested on: HIV-1 LTR-directed gene expression; details: concentrations that have minor effects on cells
[10] = tested on: HIV; details: human, in vivo
[11] = tested on: HIV

## COc1cc([C@H]2Oc3cc(-c4cc(=O)c5c(O)cc(O)cc5o4)cc(OC)c3O[C@@H]2CO)ccc1O (racemic) [5′-MHC, 5′-methoxyhydnocarpin]
[1]
  accumulation of berberine in the cells: strong increase

## CO[C@@H]1C=C2[C@@H]3CC[C@H]([C@H](C)C=C[C@H](C)C(C)C)[C@@]3(C)CC[C@@H]2[C@@]2(C)CC[C@H](O)C[C@]12O [3 beta-5 alpha-dihydroxy-6beta-methoxyergosta-7,22-diene]
[2]
  inhibition of HIV-1 protease: moderately active

## C=CCSSCC=C [Allyl disulfide]
[3]
  cell proliferation of HIV-1-infected cells: strongly depressed

## COc1ccc2cc3[n+](cc2c1OC)CCc1cc2c(cc1-3)OCO2 [Berberine]
[4]
  inhibition of HIV-1 reverse transcriptase: inhibits

## C/C(=C\CC[C@@H](C)[C@H]1CC(=O)[C@@]2(C)C3=C(C(=O)C[C@]12C)[C@@]1(C)CC[C@H](O)C(C)(C)[C@@H]1C[C@@H]3O)C(=O)O [Ganoderic acid beta]
[2]
  inhibition of HIV-1 protease: significant

## C[C@H](CCC=C(CO)CO)[C@H]1CC[C@@]2(C)C3=CC[C@H]4C(C)(C)C(=O)CC[C@]4(C)C3=CC[C@]12C [Ganoderiol F]
[5]
  activity as anti-HIV-1 agents: active

## Cc1cn([C@H]2C[C@H](N=[N+]=[N-])[C@@H](CO)O2)c(=O)[nH]c1=O [ZDV, zidovudine]
[6]
  CD4+ T cell counts: decreased

## C=CCO [allyl alcohol]
[3]
  cell proliferation of HIV-1-infected cells: strongly depressed; also recorded: completely inhibited

## C=C1CC[C@@H]2[C@](C)(CO)[C@H](O)CC[C@@]2(C)[C@@H]1C/C=C1/C(=O)OC[C@H]1O [andrographolide]
[7]
  mean CD4(+) lymphocyte level of HIV subjects: significant rise

## CC1(C)CCC2=C(O1)c1ccccc1C(=O)C2=O [beta-lapachone]
[8]
  p24 antigen production: inhibited
[9]
  inhibition of HIV-1 LTR-directed gene expression: potent and selective inhibitor

## O=c1[nH]cnc2c1ncn2[C@H]1CC[C@@H](CO)O1 [ddI, didanosine]
[10]
  mean change of CD4 cells/mm3: decrease

## CC(CC(=O)C[C@@H](C)[C@H]1CC(=O)[C@@]2(C)C3=C(C(=O)C[C@]12C)[C@@]1(C)CC[C@H](O)C(C)(C)[C@@H]1C[C@@H]3O)C(=O)O (stereo partly drawn) [ganoderic acid B]
[2]
  inhibition of HIV-1 protease: moderately active

## C[C@H](CC(=O)C[C@@H](C)[C@H]1CC(=O)[C@@]2(C)C3=C(C(=O)C[C@]12C)[C@@]1(C)CCC(=O)C(C)(C)[C@@H]1C[C@@H]3O)C(=O)O [ganoderic acid C1]
[2]
  inhibition of HIV-1 protease: moderately active

## CC(=O)O[C@@H]1C(=O)C2=C(C(=O)C[C@H]3C(C)(C)[C@@H](O)CC[C@]23C)[C@]2(C)C(=O)C[C@H]([C@H](C)CC(=O)CC(C)C(=O)O)[C@@]12C (stereo partly drawn) [ganoderic acid H]
[2]
  inhibition of HIV-1 protease: moderately active

## CC(=O)OC1C(=O)C2=C(C(=O)CC3C(C)(C)[C@@H](O)CC[C@]23C)[C@]2(C)[C@H](O)C[C@H]([C@H](C)CC(=O)CC(C)C(=O)O)[C@@]12C (stereo partly drawn) [ganoderic acid alpha]
[2]
  inhibition of HIV-1 protease: moderately active

## C[C@H](CC[C@H](O)C(C)(O)CO)[C@H]1CC[C@@]2(C)C3=CC[C@H]4C(C)(C)[C@@H](O)CC[C@]4(C)C3=CC[C@]12C (stereo partly drawn) [ganoderiol A]
[2]
  inhibition of HIV-1 protease: moderately active

## C[C@H](CCC=C(CO)CO)[C@H]1C[C@H](O)[C@@]2(C)C3=CC[C@H]4C(C)(C)C(=O)CC[C@]4(C)C3=CC[C@]12C [ganoderiol B]
[2]
  inhibition of HIV-1 protease: moderately active

## C[C@H](CC[C@H](O)C(C)(C)O)[C@H]1CC[C@@]2(C)C3=CC[C@H]4C(C)(C)C(=O)CC[C@]4(C)C3=CC[C@]12C [ganodermanondiol]
[2]
  inhibition of HIV-1 protease: significant

## C[C@H](CC[C@H](O)[C@](C)(O)CO)[C@H]1CC[C@@]2(C)C3=CC[C@H]4C(C)(C)C(=O)CC[C@]4(C)C3=CC[C@]12C [ganodermanontriol]
[5]
  activity as anti-HIV-1 agents: active
[2]
  inhibition of HIV-1 protease: significant

## CC(CC(=O)C[C@@H](C)[C@H]1C[C@H](O)[C@@]2(C)C3=C(C(=O)C[C@]12C)[C@@]1(C)CCC(=O)C(C)(C)[C@@H]1CC3)C(=O)O (stereo partly drawn) [ganolucidic acid A]
[2]
  inhibition of HIV-1 protease: significant

## lentinan
[11]; HIV-positive patients
  tolerability: good tolerability
[11]; human, in vivo
  CD4 cells: trend toward increases
